# Target: CFTR (WT-CFTR channels stably expressed in CHO cells) (Homo sapiens (Human), UniProt P13569)
# Experiment: IonWorks Quattro CFTR inhibitor assay (whole-cell population patch clamp, forskolin-activated current)
# Type: cell-based
# Conditions: inward current (−100 mV); CHO cells stably expressing WT-CFTR; CFTR activated with 10 μM forskolin; 10 min compound incubation
# Source text: CFTR activity can be quantified by electrophysiology methods, using the whole-cell configuration of the patch clamp technique (Hamill O, Marty A, Neher E, Sakmann B and Sigworth F. ‘Improved patch-clamp techniques for high resolution current recording from cells and cell-free membrane patches.’ Pflugers Archive 1981 391: 85-100). This assay directly measures the currents associated with chloride flow through CFTR channels whilst either maintaining or adjusting the transmembrane voltage. This assay can use either single glass micropipettes or parallel planar arrays to measure CFTR activity from native or recombinant cell systems. Currents measured using parallel planar arrays can be quantified using an appropriately equipped instrument such as the IonWorks Quattro (Molecular Devices Corporation, Sunnyvale, Calif.). The Quattro system can measure CFTR currents from either a single cell per recording well (HT configuration) or alternatively from a population of 64 cells per well (Population Patch Clamp PPC) (Finkel A, Wittel A, Yang N, Handran S, Hughes J, Costantin J. ‘Population patch clamp improves data consistency and success rates in the measurement of ionic currents.’ J Biomol Screen. 2006 August; 11(5):488-96).
# Chinese hamster ovary (CHO) cells stably expressing WT-CFTR channels were used for the IonWorks Quattro experiments. Cells were maintained at 37° C. in 5% v/v CO2 at 100% humidity in MEM alpha medium supplemented with 10% (v/v) FCS, 100 U/mL Penicillin/Streptomycin, and 100 μg/L methotrexate. For experiments, cells were grown in 225 cm^2 tissue culture flasks until almost confluent. Cells were removed from the flask using trypsin-EDTA and resuspended in extracellular recording solution for immediate experimentation.
# Cells, at a density of 1.5-2 million per mL, were placed on the Quattro system, added to the planar patch plate and seals allowed to establish for 5-10 mins. After assessing seal resistances (typically >50 MΩ), whole-cell access was obtained by perforation with 100 μg/mL amphotericin B. Baseline currents were measured by a pre-compound scan obtained by application of a voltage ramp from −100 to +100 mV. CFTR was activated by the addition of 10 μM forskolin to each of the 384 wells of the patch plate. After 5 min incubation the post-compound 1 currents were measured, again by application of a voltage ramp from −100 to +100 mV. Test compounds, diluted from 10 mM stocks in DMSO in extracellular solution were then added to the patch plate and were incubated for a further 10 min. The post-compound 2 currents were measured by the application of the same voltage ramp from −100 to +100 mV. The inhibition of CFTR was determined from the difference in current between the forskolin addition (post-compound 1) and the test compound (post-compound 2). This was determined at both −100 mV and +100 mV which represents the inward and outward current respectively.
# Extracellular solution (ECS): 145 mM NaCl, 4 mM CsCl, 5 mM D-glucose, 10 mM TES, 1 mM CaCl2, 1 mM MgCl2, pH 7.4 NaOH
# Intracellular solution (ICS): 113 mM L-Aspartic acid, 113 mM CsOH, 27 mM CsCl, 1 mM NaCl, 1 mM MgCl2, 1 mM EGTA, 10 mM TES. pH 7.2 with CsOH. Filter sterilized before use.
# Sequence of CFTR (WT-CFTR channels stably expressed in CHO cells) (P13569 whole entry): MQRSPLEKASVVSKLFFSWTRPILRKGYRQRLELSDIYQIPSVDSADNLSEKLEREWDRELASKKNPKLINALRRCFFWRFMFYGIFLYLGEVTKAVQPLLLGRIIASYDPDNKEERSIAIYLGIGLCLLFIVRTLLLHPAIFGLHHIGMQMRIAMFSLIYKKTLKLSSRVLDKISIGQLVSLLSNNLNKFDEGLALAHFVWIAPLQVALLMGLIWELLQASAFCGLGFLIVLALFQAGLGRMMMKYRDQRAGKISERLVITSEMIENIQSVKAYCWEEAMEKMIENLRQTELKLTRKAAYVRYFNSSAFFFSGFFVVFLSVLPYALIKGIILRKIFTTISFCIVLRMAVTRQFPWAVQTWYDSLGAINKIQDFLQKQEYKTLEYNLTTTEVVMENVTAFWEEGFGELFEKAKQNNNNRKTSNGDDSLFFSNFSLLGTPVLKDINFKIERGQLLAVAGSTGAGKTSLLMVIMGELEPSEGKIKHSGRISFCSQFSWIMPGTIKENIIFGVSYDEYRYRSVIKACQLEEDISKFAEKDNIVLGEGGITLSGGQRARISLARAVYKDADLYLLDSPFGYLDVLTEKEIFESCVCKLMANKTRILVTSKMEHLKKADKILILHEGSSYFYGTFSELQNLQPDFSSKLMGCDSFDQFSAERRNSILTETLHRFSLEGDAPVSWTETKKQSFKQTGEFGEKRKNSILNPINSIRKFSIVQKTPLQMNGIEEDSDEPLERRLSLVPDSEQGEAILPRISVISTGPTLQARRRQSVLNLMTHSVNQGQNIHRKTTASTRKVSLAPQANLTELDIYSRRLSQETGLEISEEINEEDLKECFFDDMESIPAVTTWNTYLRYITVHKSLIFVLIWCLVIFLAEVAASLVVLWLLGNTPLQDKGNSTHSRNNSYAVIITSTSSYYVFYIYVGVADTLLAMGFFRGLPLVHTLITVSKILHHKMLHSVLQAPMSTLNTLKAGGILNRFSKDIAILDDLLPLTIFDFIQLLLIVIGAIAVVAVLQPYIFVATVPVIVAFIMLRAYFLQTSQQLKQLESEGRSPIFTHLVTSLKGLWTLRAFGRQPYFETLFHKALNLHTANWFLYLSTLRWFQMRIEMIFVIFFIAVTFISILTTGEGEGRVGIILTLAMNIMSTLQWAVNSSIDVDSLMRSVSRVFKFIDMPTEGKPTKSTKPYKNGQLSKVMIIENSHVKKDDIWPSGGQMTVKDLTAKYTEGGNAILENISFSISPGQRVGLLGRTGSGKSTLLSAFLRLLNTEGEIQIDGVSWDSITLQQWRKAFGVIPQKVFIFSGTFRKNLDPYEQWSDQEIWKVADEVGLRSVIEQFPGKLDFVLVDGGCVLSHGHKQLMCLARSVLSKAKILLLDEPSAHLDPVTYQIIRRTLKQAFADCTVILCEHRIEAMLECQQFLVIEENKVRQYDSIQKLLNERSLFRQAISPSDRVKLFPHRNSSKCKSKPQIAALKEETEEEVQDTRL
row,IC50 [µM],Compound
1,4.98,"Cn1c(=O)c2c(-c3ccccc3)n3c(c2n(C)c1=O)C(c1nc(C(F)(F)F)cs1)NCC3 (single isomer, unassigned) [Example 2.4, 1,3-Dimethyl-5-phenyl-10-(4-(trifluoromethyl)thiazol-2-yl)-7,8,9,10-tetrahydropyrazino[1′,2′:1,2]pyrrolo[3,4-d]pyrimidine-2,4(1H,3H)-dione]"
2,5.42,"Cn1c(=O)c2c(-c3ccccc3)n3c(c2n(C)c1=O)C(c1nccs1)NCC3 (stereo not drawn) [Example 1.7, 1,3-Dimethyl-5-phenyl-10-(thiazol-2-yl)-7,8,9,10-tetrahydropyrazino[1′,2′:1,2]pyrrolo[3,4-d]pyrimidine-2,4(1H,3H)-dione]"
3,10.8,"Cn1ccc(C2NCCn3c(-c4ccccc4)c4c(=O)n(C)c(=O)n(C)c4c32)n1 (stereo not drawn) [Example 1.12, 1,3-Dimethyl-10-(1-methyl-1H-pyrazol-3-yl)-5-phenyl-7,8,9,10-tetrahydropyrazino[1′,2′:1,2]pyrrolo[3,4-d]pyrimidine-2,4(1H,3H)-dione]"
4,0.6,"Cc1csc([C@H]2O[C@@H](C)Cn3c(-c4ccccc4)c4c(=O)n(C)c(=O)n(C)c4c32)n1 [Example 12, (8S)-1,3,8-trimethyl-10-(4-methylthiazol-2-yl)-5-phenyl-7,8-dihydro-1H-pyrimido[4′,5′:3,4]pyrrolo[2,1-c][1,4]oxazine-2,4(3H,10H)-dione]"
5,6.37,"CCc1ccc(C2NCCn3c(-c4ccccc4)c4c(=O)n(C)c(=O)n(C)c4c32)o1 (stereo not drawn) [Example 1.10, 10-(5-Ethylfuran-2-yl)-1,3-dimethyl-5-phenyl-7,8,9,10-tetrahydropyrazino[1′,2′:1,2]pyrrolo[3,4-d]pyrimidine-2,4(1H,3H)-dione]"
6,3.53,"Cn1c(=O)c2c(-c3ccccc3)n3c(c2n(C)c1=O)[C@H](c1nc(Cl)cs1)COCC3 [Example 13, 11-(4-chlorothiazol-2-yl)-1,3-dimethyl-5-phenyl-7,8,10,11-tetrahydropyrimido[4′,5′:3,4]pyrrolo[1,2-d][1,4]oxazepine-2,4(1H,3H)-dione]"
7,6.31,"Cn1c(=O)c2c(-c3ccccc3)n3c(c2n(C)c1=O)C(c1nc(C(F)(F)F)cs1)NCC3 (stereo not drawn) [Example 1.9, 1,3-Dimethyl-5-phenyl-10-(4-(trifluoromethyl)thiazol-2-yl)-7,8,9,10-tetrahydropyrazino[1′,2′:1,2]pyrrolo[3,4-d]pyrimidine-2,4(1H,3H)-dione]"
8,> 30,"Cc1ccc(C2OCCn3c(-c4ccccc4)c4c(=O)n(C)c(=O)n(C)c4c32)o1 (single isomer, unassigned) [Example 4.2, 1,3-dimethyl-10-(5-methylfuran-2-yl)-5-phenyl-7,8-dihydro-1H-pyrimido[4′,5′:3,4]pyrrolo[2,1-c][1,4]oxazine-2,4(3H,10H)-dione]"

# The next lines start with the compound.
row,Compound,IC50 [µM]
1,"Cn1c(=O)c2c(-c3cccc(Cl)c3)n3c(c2n(C)c1=O)C(c1ccc(Cl)o1)NCC3 (stereo not drawn) [Example 3.1, 10-(5-Chlorofuran-2-yl)-5-(3-chlorophenyl)-1,3-dimethyl-7,8,9,10-tetrahydropyrazino[1′,2′:1,2]pyrrolo[3,4-d]pyrimidine-2,4(1H,3H)-dione]",0.7
2,"Cn1c(=O)c2c(-c3cccc(C#N)c3)n3c(c2n(C)c1=O)[C@H](c1ccc(Cl)o1)O[C@@H](CO)C3 (stereo in doubt) [Example 6.1, 3-(10-(5-chlorofuran-2-yl)-8-(hydroxymethyl)-1,3-dimethyl-2,4-dioxo-2,3,4,7,8,10-hexahydro-1H-pyrimido[4′,5′:3,4]pyrrolo[2,1-c][1,4]oxazin-5-yl)benzonitrile]",0.24
3,"Cn1c(=O)c2c(-c3cccc(C#N)c3)n3c(c2n(C)c1=O)C(c1ccc(Cl)o1)NCC3 (single isomer, unassigned) [Example 2.9, 3-(10-(5-chlorofuran-2-yl)-1,3-dimethyl-2,4-dioxo-1,2,3,4,7,8,9,10-octahydropyrazino[1′,2′:1,2]pyrrolo[3,4-d]pyrimidin-5-yl)benzonitrile]",0.59
4,"CN(C)C[C@@H]1Cn2c(-c3cccc(Cl)c3)c3c(=O)n(C)c(=O)n(C)c3c2[C@H](c2ccc(Cl)o2)O1 (stereo in doubt) [Example 12.4, 10-(5-chlorofuran-2-yl)-5-(3-chlorophenyl)-8-((dimethylamino)methyl)-1,3-dimethyl-7,8-dihydro-1H-pyrimido[4′,5′:3,4]pyrrolo[2,1-c][1,4]oxazine-2,4(3H,10H)-dione]",0.54
5,"Cn1c(=O)c2c(-c3nc(CO)cs3)n3c(c2n(C)c1=O)C(c1ccc(Cl)o1)O[C@@H](CO)C3 (single isomer, unassigned) [Example 7.1a, 10-(5-Chlorofuran-2-yl)-8-(hydroxymethyl)-5-(4-(hydroxymethyl)thiazol-2-yl)-1,3-dimethyl-7,8-dihydro-1H-pyrimido[4′,5′:3,4]pyrrolo[2,1-c][1,4]oxazine-2,4(3H,10H)-dione]",0.61
6,"Cn1c(=O)c2c(-c3ccccc3)n3c(c2n(C)c1=O)[C@H](c1ccc(Cl)o1)N[C@@H](CO)C3 [Example 11a, 10-(5-Chlorofuran-2-yl)-8-(hydroxymethyl)-1,3-dimethyl-5-phenyl-7,8,9,10-tetrahydropyrazino[1′,2′:1,2]pyrrolo[3,4-d]pyrimidine-2,4(1H,3H)-dione]",0.31
7,"Cn1c(=O)c2c(-c3cccc(F)c3)n3c(c2n(C)c1=O)[C@H](c1ccc(Cl)o1)O[C@@H](CO)C3 [Example 6, (8R,10R)-10-(5-Chlorofuran-2-yl)-5-(3-fluorophenyl)-8-(hydroxymethyl)-1,3-dimethyl-7,8-dihydro-1H-pyrimido[4′,5′:3,4]pyrrolo[2,1-c][1,4]oxazine-2,4(3H,10H)-dione]",0.05

# — patent US9303035B2, “Substituted pyrazino[1′,2′:1,2]pyrrolo[3,4-d]pyrimidines, pyrimido[4′,5′:3,4]pyrrolo[2,1-c][1,4]oxazines and pyrimido[4′,5′:3,4]pyrrolo[1,2-d][1,4]oxazepines for inhibiting the CFTR channel” (Novartis AG, priority 2012, dated 2016)
